According to patent US20090123565A9, “Copper-dependent non-traditional pro-inflammatory cytokine export and methods, compositions and kits relating thereto” (Maine Medical Center Research Institute, priority 2001, published 2009):
Starred links: 1 amine or outer side, 2 acyl side, 3 side chain; linkers in the order of their positions; H or OH if unused. Positions of bridges follow the written chain, without caps; N, C: chain ends. Non-standard residues stand in square brackets, D forms with d. Residues, ends and D or L forms follow the SMILES beside them. Chains are numbered I, II in the order given. Actinocin(9to1) = Cc1c2oc3c(C)ccc(C(=O)[*:1])c3nc-2c(C(=O)[*:2])c(N)c1=O; NMeV = CN[C@H](C(=O)O)C(C)C; Sar = CNCC(=O)O

Test system: IL1α release from NIH 3T3 cell transfectants
Assay: Heat shock-induced release of IL1α from NIH 3T3 cell transfectants (immunoblot of conditioned media)
Format: cell-based, human
Conditions: actinomycin D 10 μg/ml
Procedure: FIG. 5, comprising FIGS. 5A and 5B, depict the involvement of Cu^2+ in IL1α release. FIG. 5A is an image depicting results obtained using NIH 3T3 cells stably transfected with mIL1α-βGal. The cells were incubated for 18 hours at 37 C in the absence and presence of the Cu^2+ chelator, tetrathiomolybdate (TTM) as indicated and the untreated and treated cells either maintained at 37 C or subjected to heat shock as described in FIG. 3. The conditioned medium was evaluated for IL1α-βGal release by IL1α immunoblot analysis, and cell lysates from TTM-treated cells were used to monitor the intracellular level of IL1α-βGal expression. […] FIG. 5B is an image depicting release of IL1α-βGal in myc-S100A13 and IL1α-βGal NIH 3T3 cell cotransfectants and in insert-less vector and mIL1α-βGal NIH 3T3 cell transfectants in the presence and absence actinomycin D (10 μg/ml), as indicated, in response to heat shock. Conditioned media were processed and evaluated for IL1α-βGal immunoblot analysis as described in Tarantini et al. (2001).
Stable NIH 3T3 cell transfectants were generated accordingly with the following cDNA constructs cloned into pMEXneo (Tarantini, et al. 2001; Tarantini, et al. 1995; Tarantini, et al. 1998; LaVallee, et al. 1998; Carreira, et al. 1998; Landriscina, et al., 2001): human S100A13 with an amino-terminal fusion to a 6 Myc Tag (Myc-S100A13) (Landriscina, et al., 2001); human Myc-S100A13ΔBR (Landriscina, et al., 2001); human mIL1α (residues 113-271); human mIL1α with a carboxy-terminal fusion to a βGalactosidase tag (mIL1α-βGal) (Tarantini, et al. 2001); and pIL1α (residues 1-271) with a carboxy-terminal fusion to βGalactosidase (pIL1α-βGal) (Tarantini, et al. 2001). Recombinant human mIL1α was provided by Hoffmann-LaRoche. Recombinant human S100A13, as well as S100A13ΔBR, a S100A13 construct with the basic residue rich domain (residues 88 to 98) deleted, were generated as previously described (Landriscina, et al., 2001).
NIH 3T3 cell transfectants were grown to 70-80% confluency and prior to temperature stress, the cells were washed with serum-free DMEM. The heat shock was performed as previously described (Tarantini et al., 1995) in serum-free DMEM for 110 min at 42° C. Control cultures were incubated at 37° C. in serum-free DMEM. […] Immunoprecipitated and eluted proteins were resolved by 8% and 12% acrylamide SDS-PAGE, respectively, and evaluated by either IL1α (Tarantini, et al. 2001) or Myc (Landriscina, et al., 2001) immunoblot analysis. […] The effects of actinomycin D (Sigma Chemical Co., St. Louis, Mo.), cyclohexamide (Sigma) and tetrathiomolybdate (Sigma-Aldrich) on IL1α release were evaluated as previously reported (LaVallee et al., 1998).

## Cc1c2oc3c(C)ccc(C(=O)N[C@@H]4C(=O)N[C@H](C(C)C)C(=O)N5CCC[C@H]5C(=O)N(C)CC(=O)N(C)[C@@H](C(C)C)C(=O)O[C@@H]4C)c3nc-2c(C(=O)N[C@@H]2C(=O)N[C@H](C(C)C)C(=O)N3CCC[C@H]3C(=O)N(C)CC(=O)N(C)[C@@H](C(C)C)C(=O)O[C@@H]2C)c(N)c1=O [actinomycin D] (I: T[dV]P[Sar][NMeV] / II: T[dV]P[Sar][NMeV]; ester I:1-I:C, II:1-II:C; linker I:N-II:N via Actinocin(9to1))
Myc-S100A13 and IL1α-βGal NIH 3T3 cell cotransfectants
  repression of export of IL1α-βGal in response to heat shock: unable to repress
insert-less vector and IL1α-βGal NIH 3T3 cell cotransfectants
  repression of release of IL1α-βGal in response to heat shock: able to repress
